Measured values published in PubChem BioAssay (NCI).
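Each compound was tested at five concentrations against cells in 96-well plates for 48 hours. Here, GI50 denotes the concentration required for 50% inhibition of growth. The concentration for full growth arrest is given as TGI.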

Assays:
Test in all cases: growth of human tumour cells (NCI), 48 h
786-0 renal = system: 786-0 renal
A498 renal = system: A498 renal
A549 NSCLC = system: A549 NSCLC
ACHN renal = system: ACHN renal
BT-549 breast = system: BT-549 breast
CAKI-1 renal = system: CAKI-1 renal
CCRF-CEM leukemia = system: CCRF-CEM leukemia
COLO 205 colon = system: COLO 205 colon
DU-145 prostate = system: DU-145 prostate
EKVX NSCLC = system: EKVX NSCLC
HCC-2998 colon = system: HCC-2998 colon
HCT-116 colon = system: HCT-116 colon
HCT-15 colon = system: HCT-15 colon
HL-60(TB) leukemia = system: HL-60(TB) leukemia
HOP-62 NSCLC = system: HOP-62 NSCLC
HOP-92 NSCLC = system: HOP-92 NSCLC
HS 578T breast = system: HS 578T breast
HT29 colon = system: HT29 colon
IGROV1 ovarian = system: IGROV1 ovarian
K-562 leukemia = system: K-562 leukemia
KM12 colon = system: KM12 colon
LOX IMVI melanoma = system: LOX IMVI melanoma
M14 melanoma = system: M14 melanoma
MALME-3M melanoma = system: MALME-3M melanoma
MCF7 breast = system: MCF7 breast
MDA-MB-231 breast = system: MDA-MB-231 breast
MDA-MB-435 = system: MDA-MB-435
MOLT-4 leukemia = system: MOLT-4 leukemia
NCI-H226 lung = system: NCI-H226 lung
NCI-H23 lung = system: NCI-H23 lung
NCI-H460 lung = system: NCI-H460 lung
NCI-H522 lung = system: NCI-H522 lung
NCI/ADR-RES ovarian = system: NCI/ADR-RES ovarian
OVCAR-3 ovarian = system: OVCAR-3 ovarian
OVCAR-4 ovarian = system: OVCAR-4 ovarian
OVCAR-5 ovarian = system: OVCAR-5 ovarian
OVCAR-8 ovarian = system: OVCAR-8 ovarian
PC-3 prostate = system: PC-3 prostate
RPMI-8226 leukemia = system: RPMI-8226 leukemia
RXF 393 renal = system: RXF 393 renal
SF-268 CNS = system: SF-268 CNS
SF-295 CNS = system: SF-295 CNS
SF-539 CNS = system: SF-539 CNS
SK-MEL-2 melanoma = system: SK-MEL-2 melanoma
SK-MEL-28 melanoma = system: SK-MEL-28 melanoma
SK-MEL-5 melanoma = system: SK-MEL-5 melanoma
SK-OV-3 ovarian = system: SK-OV-3 ovarian
SN12C renal = system: SN12C renal
SNB-19 CNS = system: SNB-19 CNS
SNB-75 CNS = system: SNB-75 CNS
SR leukemia = system: SR leukemia
SW-620 colon = system: SW-620 colon
T-47D breast = system: T-47D breast
TK-10 renal = system: TK-10 renal
U251 CNS = system: U251 CNS
UACC-257 melanoma = system: UACC-257 melanoma
UO-31 renal = system: UO-31 renal

`CC(=O)N1CCN([C@H]2CCC[C@@H](NC(=O)c3cc4c(F)ccc(C)c4[nH]3)C2)CC1` was tested, and the GI50 (786-0 renal) was 36.6 µM, the TGI (786-0 renal) was over 100 µM and the GI50 (A498 renal) was 14 µM. For the same molecule, the TGI (A498 renal) was over 100 µM, the GI50 (A549 NSCLC) was 10.8 µM and the TGI (A549 NSCLC) was over 100 µM. It also gave a GI50 (ACHN renal) of 32.5 µM, a TGI (ACHN renal) of over 100 µM and a GI50 (BT-549 breast) of 15.6 µM. It also gave a TGI (BT-549 breast) of over 100 µM, a GI50 (CAKI-1 renal) of 11.2 µM and a TGI (CAKI-1 renal) of over 100 µM. The GI50 (CCRF-CEM leukemia) was 21.6 µM, the TGI (CCRF-CEM leukemia) was over 100 µM and the GI50 (COLO 205 colon) was 24.5 µM. It also gave a TGI (COLO 205 colon) of over 100 µM, a GI50 (DU-145 prostate) of 24.6 µM and a TGI (DU-145 prostate) of over 100 µM. The GI50 (EKVX NSCLC) was 10.7 µM, the TGI (EKVX NSCLC) was over 100 µM and the GI50 (HCC-2998 colon) was 18.7 µM. The TGI (HCC-2998 colon) was over 100 µM, the GI50 (HCT-116 colon) was 27.5 µM and the TGI (HCT-116 colon) was over 100 µM. The GI50 (HCT-15 colon) was 19.9 µM, the TGI (HCT-15 colon) was over 100 µM and the GI50 (HL-60(TB) leukemia) was 62.5 µM. It also gave a TGI (HL-60(TB) leukemia) of over 100 µM, a GI50 (HOP-62 NSCLC) of 15.3 µM and a TGI (HOP-62 NSCLC) of over 100 µM. It also gave a GI50 (HOP-92 NSCLC) of 18.4 µM, a TGI (HOP-92 NSCLC) of over 100 µM and a GI50 (HS 578T breast) of 4.66 µM. It also gave a TGI (HS 578T breast) of 47.6 µM, a GI50 (HT29 colon) of 16.7 µM and a TGI (HT29 colon) of 71.6 µM. For the same molecule, the GI50 (IGROV1 ovarian) was 4.83 µM, the TGI (IGROV1 ovarian) was over 100 µM and the GI50 (K-562 leukemia) was 31.1 µM. The TGI (K-562 leukemia) was over 100 µM, the GI50 (KM12 colon) was 44.3 µM and the TGI (KM12 colon) was over 100 µM. It also gave a GI50 (LOX IMVI melanoma) of 16.4 µM, a TGI (LOX IMVI melanoma) of over 100 µM and a GI50 (M14 melanoma) of 15.3 µM. For the same molecule, the TGI (M14 melanoma) was 34.3 µM, the GI50 (MALME-3M melanoma) was 10.1 µM and the TGI (MALME-3M melanoma) was 29.8 µM. It also gave a GI50 (MCF7 breast) of 13.5 µM, a TGI (MCF7 breast) of over 100 µM and a GI50 (MDA-MB-231 breast) of 22.3 µM. It also gave a TGI (MDA-MB-231 breast) of over 100 µM, a GI50 (MDA-MB-435) of 24.6 µM and a TGI (MDA-MB-435) of over 100 µM. For the same molecule, the GI50 (MOLT-4 leukemia) was 19.4 µM, the TGI (MOLT-4 leukemia) was over 100 µM and the GI50 (NCI-H226 lung) was 16.9 µM. It also gave a TGI (NCI-H226 lung) of over 100 µM, a GI50 (NCI-H23 lung) of 20.3 µM and a TGI (NCI-H23 lung) of over 100 µM. The GI50 (NCI-H460 lung) was 18.3 µM, the TGI (NCI-H460 lung) was over 100 µM and the GI50 (NCI-H522 lung) was 10.8 µM. For the same molecule, the TGI (NCI-H522 lung) was over 100 µM, the GI50 (NCI/ADR-RES ovarian) was 69.9 µM and the TGI (NCI/ADR-RES ovarian) was over 100 µM. It also gave a GI50 (OVCAR-3 ovarian) of 42.9 µM, a TGI (OVCAR-3 ovarian) of over 100 µM and a GI50 (OVCAR-4 ovarian) of 11.3 µM. The TGI (OVCAR-4 ovarian) was over 100 µM, the GI50 (OVCAR-5 ovarian) was 39.9 µM and the TGI (OVCAR-5 ovarian) was over 100 µM. It also gave a GI50 (OVCAR-8 ovarian) of 46.5 µM, a TGI (OVCAR-8 ovarian) of over 100 µM and a GI50 (PC-3 prostate) of 26.1 µM. It also gave a TGI (PC-3 prostate) of over 100 µM, a GI50 (RPMI-8226 leukemia) of 24.9 µM and a TGI (RPMI-8226 leukemia) of over 100 µM. For the same molecule, the GI50 (RXF 393 renal) was 2.17 µM, the TGI (RXF 393 renal) was 9.61 µM and the GI50 (SF-268 CNS) was 23 µM. It also gave a TGI (SF-268 CNS) of over 100 µM, a GI50 (SF-295 CNS) of 10.8 µM and a TGI (SF-295 CNS) of over 100 µM. It also gave a GI50 (SF-539 CNS) of 13.8 µM, a TGI (SF-539 CNS) of over 100 µM and a GI50 (SK-MEL-2 melanoma) of 34.9 µM. For the same molecule, the TGI (SK-MEL-2 melanoma) was over 100 µM, the GI50 (SK-MEL-28 melanoma) was 13.5 µM and the TGI (SK-MEL-28 melanoma) was 29 µM. It also gave a GI50 (SK-MEL-5 melanoma) of 15.1 µM, a TGI (SK-MEL-5 melanoma) of 28.5 µM and a GI50 (SK-OV-3 ovarian) of 37.2 µM. It also gave a TGI (SK-OV-3 ovarian) of over 100 µM, a GI50 (SN12C renal) of 21.9 µM and a TGI (SN12C renal) of over 100 µM. It also gave a GI50 (SNB-19 CNS) of 33.3 µM, a TGI (SNB-19 CNS) of over 100 µM and a GI50 (SNB-75 CNS) of 5.43 µM. For the same molecule, the TGI (SNB-75 CNS) was 68.1 µM, the GI50 (SR leukemia) was 14 µM and the TGI (SR leukemia) was 81 µM. For the same molecule, the GI50 (SW-620 colon) was 85.1 µM, the TGI (SW-620 colon) was over 100 µM and the GI50 (T-47D breast) was 25.2 µM. The TGI (T-47D breast) was over 100 µM, the GI50 (TK-10 renal) was 18.7 µM and the TGI (TK-10 renal) was over 100 µM. The GI50 (U251 CNS) was 32.1 µM, the TGI (U251 CNS) was over 100 µM and the GI50 (UACC-257 melanoma) was 13.6 µM. For the same molecule, the TGI (UACC-257 melanoma) was 27.8 µM, the GI50 (UO-31 renal) was 1.78 µM and the TGI (UO-31 renal) was 3.91 µM.
